From PubChem BioAssay AID602296 (Broad Institute, 2012) come the findings set out here.

Records with an inconclusive call do not appear. Activity calls are given as the source filed them.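 The calls were made as follows: active = fitted activation curve crossing 40% at a concentration no higher than the sample's top valid tested dose; inconclusive = flat fitted curve at 30% to 70% activation, or poor curve fit; inactive = signal decrease, flat curve within 30%, or the rest.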 Peptide text beside a SMILES is read from it. * marks the point of attachment. Boc = CC(C)(C)OC(=O)*; OtBu = CC(C)(C)O*

The experiment deals with NIH3T3-HGL HSF-1 response element luciferase, 48 h. The experiment in a line: sustained heat shock response element induction – cell-based, mouse, luciferase, cherry-pick, dose, confirmation (AID 602296).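 Also: test compounds applied by themselves with no MG132 co-treatment.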
Consider `COC(=O)C(Cc1ccc(O)cc1)NC(=O)C(CC(=O)OC(C)(C)C)NC(=O)OC(C)(C)C` (stereo unspecified) (Boc-Asp(OtBu)-Tyr-OMe; configuration not given here), for which the AC40 is 16.5 µM.
`CCN1C(=O)CC(N2CCN(c3ccc(C(=O)c4ccccc4)cc3)CC2)C1=O` (stereo unspecified): the AC40 is 3.85 µM.
Then `O=c1[nH]c2ccc(S(=O)(=O)Nc3ccc(-c4nnc5n4CCCCC5)cc3)cc2o1`, with > 26 µM (inactive); and `COCCNC(=S)N/N=C/c1ccc(N2CCOCC2)cc1`, with > 26 µM (inactive); and `CCc1nc2c(sc3nc4c(cc32)COC(C)(C)C4)c(=O)n1Cc1ccco1`, with > 26 µM (inactive).
In the case of `N#Cc1ccc(OCCN2CCc3ccccc3C2)cc1`, the AC40 was 8.01 µM.
Take `CCOC(=O)CN1C=C(c2ccc3ccccc3n2)C(C[N+](=O)[O-])c2ccccc21` (stereo unspecified): the AC40 was 3.31 µM.
For the compound `COc1cccc(N=CC2=C(O)CC(C)(C)CC2=O)c1`, the AC40 was > 26 µM (inactive).
For `CCC1(C)N=C(N)Nc2nc3cc(C)c(C)cc3n21` (stereo unspecified), the AC40 is 24.5 µM.
In the case of `CCNC(=S)N/N=C/c1ccc(-c2ccccc2)o1`, the AC40 is > 26 µM (inactive).
As for `O=C(CN1c2ccccc2S(=O)(=O)c2ccccc21)NCc1ccc(F)cc1`, the AC40 was > 26 µM (inactive).
Then `CCOC(=S)SCC(=O)Nc1nc(C)c(C)s1`, with 12.4 µM; and `COCCCNCCOc1ccc(C)cc1[N+](=O)[O-]`, with > 26 µM (inactive).
For the compound `Cc1onc(-c2ccccc2)c1NC(=O)N(CCC#N)Cc1ccccc1`, the AC40 is > 26 µM (inactive).
As to `CCOc1ccccc1-c1noc(CCCC(=O)NC2CCCCC2)n1`, the AC40 was > 26 µM (inactive).
For `COc1ccccc1/C=C1/SC(=S)N(C(C)C(=O)NC2C=CS(=O)(=O)C2)C1=O` (stereo unspecified), the AC40 is > 26 µM (inactive).
On to `Cc1ccc(C(=O)n2cnnc2N)cc1`, for which the AC40 was > 26 µM (inactive).
As for `COc1cccc(NC(=O)CSc2nc(N)cc(N)n2)c1`, the AC40 is > 26 µM (inactive).
Regarding `COCc1cc(=O)[nH]c(SCCS(=O)(=O)c2ccc(Cl)cc2Cl)n1`, the AC40 was > 12 µM (inactive).
Then `CCCN1C(=O)c2ccccc2NC1c1ccc(Cl)c(Cl)c1` (stereo unspecified), with > 26 µM (inactive); and `COc1ccc(C(=O)NCC(=O)OCC(=O)c2ccc3c(c2)NC(=O)CO3)cc1`, with > 26 µM (inactive); and `COC(=O)CC/C(O)=C1/C(=N)CC(C)(C)CC1=O`, with > 12 µM (inactive).
For `Cc1cc(C)n2nc(N)c(N=Nc3cccc(Cl)c3)c2n1`, the AC40 is > 26 µM (inactive).
`CCOC(=O)C1CCCN(C(=O)c2sc3nc(C)nc(N(CC)CC)c3c2C)C1` (stereo unspecified): the AC40 was > 26 µM (inactive).
As to `c1ccc(COc2ccccc2CNC2CCCC2)cc1`, the AC40 is > 26 µM (inactive).
As for `CCC1(c2ccccc2)NC(=O)N(CC(=O)NCc2ccccc2OC)C1=O` (stereo unspecified), the AC40 is > 26 µM (inactive).
For `COc1ccc(Cc2nnc(SCC(=O)Nc3ccc(N4CCOCC4)cc3)o2)cc1`, the AC40 is > 26 µM (inactive).
With `COc1ccc(C)cc1Cn1c(S(C)(=O)=O)nc2ccccc21`, the AC40 was > 26 µM (inactive).
In the case of `COCCCNC(=O)c1ccc(NS(C)(=O)=O)cc1`, the AC40 was > 26 µM (inactive).
With `CCOC(=O)c1cnc2ccc(C)cc2c1Sc1ccc(F)cc1`, the AC40 was > 12 µM (inactive).
Consider `CCN(/N=C/C=C/c1ccccc1)c1cc(=O)n(C)c(=O)[nH]1`, for which the AC40 was > 26 µM (inactive).
As for `COC(=O)[C@@H]1C[C@]2(OC(=O)c3ccccc3)C=CC(=O)C[C@@H]2N1C(=O)OCc1ccccc1`, the AC40 is 12.4 µM.
As to `O=C(CC12CCC(CC1)C2)NCc1ccc2c(c1)OCO2`, the AC40 is > 26 µM (inactive).
For `CCN(CC(=O)Nc1ccc(NC(C)=O)cc1)Cc1c(O)ccc2cc(Br)ccc12`, the AC40 is 25.2 µM.
As for `Cc1cc(/C=C(/C#N)c2cccc(Cl)c2)c(C)n1C`, the AC40 is > 26 µM (inactive).
Under `Nc1c(-c2ccsc2)cnc2ncnn12` stands > 26 µM (inactive); under `S=c1[nH]nc(-c2ccccc2)n1/N=C/c1ccc(-c2ccccc2Cl)o1`, > 12 µM (inactive).
As for `COC1(OC)C(/C=C/c2ccc(Cl)cc2)C(C#N)(C#N)C1(OC)OC` (stereo unspecified), the AC40 is 16.9 µM.
In the case of `CC(C)(C)N(NS(=O)(=O)c1ccc(F)cc1)c1ccccc1`, the AC40 was > 26 µM (inactive).
Under `Cc1cc(C)cc(NC(=O)CN(C)S(=O)(=O)c2cnc[nH]2)c1` stands > 26 µM (inactive).
Turning to `CC(C)[C@H](NC(=O)OC(C)(C)C)c1nnc(SCC(=O)Nc2ccc(Br)cc2)o1`, the AC40 is > 26 µM (inactive).
Under `Cc1ccc(NC(=O)N2CCCC2C(=O)Nc2c(C)cc(C)cc2C)cc1` (stereo unspecified) stands > 26 µM (inactive); under `COc1ccc(/C=C/C(=O)NCCCc2ccccc2)cc1`, > 26 µM (inactive).
Regarding `O=C1Nc2ccccc2/C1=C/c1cnc[nH]1`, the AC40 is > 26 µM (inactive).
Turning to `CCOc1cc(N2CCOCC2)c(OCC)cc1NC(=O)Cc1cccc2ccccc12`, the AC40 was > 26 µM (inactive).
Regarding `CN1C(=O)C2C(c3ccc(N(C)C)cc3)=NN(Cc3ccccc3)C2C1=O` (stereo unspecified), the AC40 was > 26 µM (inactive).
Then `O=C(O)CSc1nnnn1-c1ccc2c(c1)OCCO2`, with > 26 µM (inactive); and `CC1(C)CC(=O)C2=C(C1)Nc1cc3c(cc1C2c1ccc2c(c1)OCO2)OCO3` (stereo unspecified), with 7.45 µM; and `CCCCOc1ccc(-c2nc(/C=N/c3nccs3)c(O)o2)cc1`, with 18.4 µM.
Under `N#CCCn1cc(C=C(C#N)C#N)c(-c2ccc(-c3ccccc3)cc2)n1` stands > 12 µM (inactive); under `COc1ccccc1C(=O)CSc1nnc(-c2ccco2)o1`, 11.7 µM; under `O=C(CSc1nnc(-c2ccc(F)cc2)c2ccccc12)Nc1ccccc1`, 18.7 µM.
Under `CC(C)C(=O)N1CCC(n2nccc2NC(=O)CCOc2ccccc2)CC1` stands 7.78 µM; under `CN(Cc1ccccc1)C(=O)c1cc(-c2ccc(Br)cc2)on1`, 2.21 µM; under `O=C(CCC1CCCN(C(=O)c2ccc3cc[nH]c3c2)C1)NCc1ccc(F)c(F)c1` (stereo unspecified), 14.8 µM.
In the case of `CCC(=O)Nc1cccc(C(=O)/C=C/c2ccc(F)cc2)c1`, the AC40 was 11.2 µM.
Consider `COC(=O)c1ccc(C(=O)OC)c(NC(=O)C(C)(C)C)c1`, for which the AC40 is > 26 µM (inactive).
With `CC(CCc1ccccc1)NC(=O)CN1CCc2ccccc2C1` (stereo unspecified), the AC40 was > 26 µM (inactive).
On to `O=C(NC(=S)Nc1ccccc1C(F)(F)F)c1ccccc1F`, for which the AC40 is 19.3 µM.
As for `COc1ccc(CCNc2oc(-c3ccccc3OC)nc2C#N)cc1`, the AC40 is > 26 µM (inactive).
Take `CSc1ccccc1-n1nnnc1SCC(=O)NCc1cccs1`: the AC40 is > 26 µM (inactive).
Then `CCOC(=O)c1cccc(NC(=O)Cn2c(CC(=O)NC)nc3ccccc32)c1`, with > 26 µM (inactive).
Under `C=CCOc1ccc(-c2nc3c(c(=O)[nH]c(=O)n3Cc3ccccc3)n2CCCOC)cc1` stands > 26 µM (inactive); under `Cc1ccc(-c2nc3ncccn3c2Nc2ccccc2C)o1`, > 26 µM (inactive); under `CCOC(=O)c1c(C)c(C(=O)Nc2ccc3c(c2)OCO3)c(C)n1C`, 24.1 µM.
In the case of `CC12CCC3C(CC=C4CC(O)CCC43C)C1C/C(=C\N1CCCC1)C2=O` (stereo unspecified), the AC40 is > 26 µM (inactive).
`CCOC(=O)C(=O)/C(C#N)=C/Nc1ccccc1`: the AC40 is > 26 µM (inactive).
With `O=C(CN1C(=O)NC2(CCCC2)C1=O)NCCN1C(=O)S/C(=C\c2ccccc2F)C1=O`, the AC40 is > 26 µM (inactive).
As to `O=C(CN1CCOCC1)N(c1ccccc1)c1ccc2ccccc2c1`, the AC40 was 14.6 µM.
Then `Cc1cc(C)n2nc(C(=O)N/N=C/c3c4ccccc4cc4ccccc34)nc2n1`, with > 12 µM (inactive); and `CC(C)(CNC(=O)/C=C/c1ccc(F)cc1)CNC(=O)/C=C/c1ccc(F)cc1`, with > 26 µM (inactive); and `O=C1C2CC=CCC2C(=O)N1Cc1nnc(-c2ccc(Cl)cc2)o1` (stereo unspecified), with 6.68 µM.
`Cc1csc2nc(CCNS(=O)(=O)c3cccs3)cn12`: the AC40 is 2.76 µM.
As to `C/C(=N\OC(=O)c1ccc(F)cc1)c1ccc(F)c(F)c1`, the AC40 was 24.7 µM.
Under `CN(C)CCNC(=O)/C(=C/c1ccc(-c2cccc(Cl)c2)o1)NC(=O)c1ccccc1` stands > 26 µM (inactive).
For the compound `COc1ccc(OC)c(-n2c(=O)c3ccccc3c3ccccc3c2=O)c1`, the AC40 is 12.4 µM.
In the case of `O=C(O)CSc1nc2ccccc2nc1Cc1ccccc1F`, the AC40 is 9.82 µM.
Regarding `O=C1/C(=C\c2ccc(Br)o2)Cc2ccccc21`, the AC40 is 10.7 µM.
`CCCC(=O)Nc1cc(-c2nn(C)c(=O)c3ccccc23)ccc1OC`: the AC40 was > 26 µM (inactive).
Take `CCOC(=O)/C(=N/Nc1ccc(Cl)cc1)Sc1nnnn1-c1ccc(C)cc1`: the AC40 was > 12 µM (inactive).
Under `COC(=O)C(C)Sc1ncnc2c1nnn2-c1ccc(F)cc1` (stereo unspecified) stands 5.57 µM; under `COc1cc(NC(=O)Cc2cccs2)ccc1-n1cnnn1`, > 26 µM (inactive); under `COCCCNc1nc2nonc2nc1N1CCN(Cc2cccc(C)c2)CC1`, > 26 µM (inactive).
Consider `O=C(CN1C(=O)/C(=C\c2cccc(Cl)c2)Sc2ccccc21)NCCCN1CCOCC1`, for which the AC40 was > 12 µM (inactive).
Under `CC(C)(C)NC(=O)c1cccc(NC(=O)CSc2ccc(Cl)cc2)c1` stands > 26 µM (inactive).
Then `O=C(Cc1c(O)c2ccccc2[nH]c1=O)NCc1ccccc1`, with > 26 µM (inactive); and `Cc1cccc(NC(=O)CSc2nnc(-c3ccco3)c(-c3ccco3)n2)c1C`, with > 26 µM (inactive).
On to `Cc1ccccc1CC1(CO)CCCN(C(=O)c2ccccc2Cl)C1` (stereo unspecified), for which the AC40 was > 26 µM (inactive).
Turning to `Cc1ccc(S(=O)(=O)CCN2CCN(c3ccccc3)CC2)cc1`, the AC40 was > 26 µM (inactive).
Consider `COCCCNC(=O)CCn1c(=O)c2ccccc2n(CC(=O)Nc2cc(Cl)ccc2C)c1=O`, for which the AC40 was > 26 µM (inactive).
For `Cc1occc1C(=O)NNS(=O)(=O)c1ccc([N+](=O)[O-])cc1`, the AC40 is > 26 µM (inactive).
